{"source": "patent US20250235501A1", "about": "“Methods and Compositions for Treating or Preventing Neurological Injury or Neurological Disorders” (University of Connecticut, priority 2024, published 2025)", "system": "NMDARs (GluN1a, GluN2a, GluN2b)", "assay": "Surface expression of NMDARs in HEK293T cells co-transfected with NMDARs and TRPM2 (WB)", "assay_type": "cell-based, human", "settings": "10 μM peptide overnight; NMDARs/TRPM2 vs NMDARs/EGFP", "description": "FIGS. 4K-4N show the surface expression of NMDARs in HEK-293T cells co-transfected with TRPM2 or EGFP with the treatment of PKC activator PMA (FIG. 4K) and inhibitor Stausporine (FIG. 4L). Membrane (Mem) and cytocol (Cyto) NMDARs were analyzed and averaged from 3 independent experiments with 1 μM PMA treatment (FIG. 4N) or 1 μM Stausporine treatment (FIG. 4L) for overnight. Pan-cadherin and β-tubulin were loading controls for membrane and cytosol protein, respectively (*, p<0.05, **, p<0.01, ***, p<0.001, unpaired t-test, mean±SEM, n=3/group).\nFIGS. 5C-5F effects of TAT-EE3 on surface expression of NMDARs. HEK293T cells co-transfected with NMDARs with TRPM2 (+M2) or EGFP vector (Con) were treated with 10 μM TAT-SC (FIG. 5C) or TAT-EE3 (FIG. 5D) overnight. Membrane (Mem) and cytosol (Cyto) proteins of NMDARs in TAT-SC (FIG. 5E) and TAT-EE3 (FIG. 5F) treated groups were assessed by WBs and analyzed in reference to Pan-cadherin or β-tubulin (**, p<0.01, ***, p<0.001, unpaired t-test, mean±SEM). All the results were replicated in at least 3 independent experiments.\nPan-cadherin and β-tubulin were used as loading control for membrane and cytosolic protein extraction.\nwere ordered from GenScript Biotech, and dissolved in PBS to make a stock concentration at 10 mM. HEK-293T cells or isolated neurons were treated with TAT-SC or TAT-EE3 at a concentration of 10 μM for at least 8 h prior to use. Mice were injected with TAT-SC or TAT-EE3 intraperitoneally (ip) at a dose of 100 nmol/kg.\nHEK293T cells were cultured in Dulbecco's Modified Eagle's medium (DMEM) (Thermal Fisher Scientific, 12100-038) supplemented with 10% BGS (HyClone, SH30541.03) and 0.5% penicillin/streptomycin (Thermal Fisher Scientific, 15140-122) at 37° C. and 5% CO2. 8 h prior to transfection, culture medium was replaced with DMEM supplemented only with 2.5% BGS. Cells were transfected when at a confluence about 80-90% using Lipofectamine® 3000 Transfection Kit (Thermal Fisher Scientific, 2232162) based on instruction.\nNP-40/Triton lysis buffer ([…], 1% Triton™ X-100, 150 mM NaCl, 1 mM EDTA, 50 mM Tris, pH=8.0) containing proteinase inhibitors and phosphatase inhibitors was used to lyse both cultured cells and frozen brain tissue. Surface protein was extracted using Pierce® Cell Surface Protein Isolation Kit (Thermal Fisher Scientific, 89881) in transfected HEK-293T cells, and using ProteoExtract™ Native Membrane Protein Extraction Kit (Calbiochem, 444810) in brain tissue based on instructions. […] Protein concentration was measured using Pierce™ Rapid Gold BCA Protein Assay Kit.\n30-50 μg of total protein was loaded and separated proteins were transferred to Nitrocellulose membranes. […] Band intensity was quantified using ImageJ software and normalized with appropriate loading controls."}
{"substance": "TAT-EE3: membrane permeable disrupting peptide, sequence YGRKKRRQRRREEDTDSSEEMLALAEE (SEQ ID NO: 4)", "values": [{"measurement": "enhancement of NMDAR surface expression by TRPM2", "value": "eliminated the enhancement"}]}
